Results taken from publication PMC12796986 (Journal of medicinal chemistry, 2025).
≈ marks a conversion by molar mass, not a printed value. Where two headings read alike, the source gives them in different places.

Key:
in vitro [1] = settings: human, plasma, pH 7.4
[2] = microsomes
VACV-Gluc reporter virus = assay: microbe, parasite or virus in culture; assay type: cell-based, vaccinia virus; settings: for EC50: Orthopoxvirus vaccinia, HFF, 24 h, read-out: VACV EC50
[3] = pH 7.2
in vitro [4] = settings: human, microsomes, pH 7.4
physchem = settings: pH 7.2, aqueous buffer, kinetic from dmso stock
mpox resolvase (Mpr) = mpox resolvase (Mpr) (Monkeypox virus, UniProt A0A7H0DNC1); assay: biochemical; assay type: biochemical
Chain of mpox resolvase (Mpr) (A0A7H0DNC1 whole entry, looked up): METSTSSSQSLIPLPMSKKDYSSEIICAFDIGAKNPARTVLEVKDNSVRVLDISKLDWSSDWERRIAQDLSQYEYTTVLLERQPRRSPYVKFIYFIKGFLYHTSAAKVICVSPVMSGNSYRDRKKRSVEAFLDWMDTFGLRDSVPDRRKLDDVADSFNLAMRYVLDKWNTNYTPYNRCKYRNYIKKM

in vitro [5] = settings: PAMPA
in vitro [6] = settings: human
[7] = tested on: fowlpox virus resolvase (Fpr); settings: read-out: Fpr IC50; cited from earlier work

SMILES	SI (selectivity index, CC50 / EC50) (VACV-Gluc reporter virus)	EC50 (VACV-Gluc reporter virus) [nM]	IC50 (mpox resolvase (Mpr)) [nM]	CC50 (in vitro [6]) [µM]	also measured
O=c1c(-c2ccccc2)c(O)c2c(-c3cccc(-c4ccccc4)c3)ccnc2n1O [5-1, 5-([1,1’-biphenyl]-3-yl)-1,4-dihydroxy-3-phenyl-1,8-naphthyridin-2(1H)-one]	4.7 × 10^4	3.2 ± 0.7	36 ± 1	150	half-life (in vitro [1]): > 1440 min; human microsomal stability [2]: excellent human microsomal stability; fold better antiviral potency than brincidofovir (VACV-Gluc reporter virus): 2 fold; fold improvement in antiviral potency against VACV over compound 3 (VACV-Gluc reporter virus): 400 fold; solubility [3]: acceptable solubility; half-life (in vitro [4]): > 120 min; solubility (physchem): 130 ± 4 µM (≈ 52.8 µg/mL); fold improvement in Mpr inhibition over C-6 regioisomer (compound 3 for 5-1) (mpox resolvase (Mpr)): 10 fold; Papp (in vitro [5]): 9 ± 1 ×10⁻⁶ cm/s
O=c1c(-c2ccccc2)c(O)c2cc(-c3ccccc3)cnc2n1O [4a-5, 1,4-dihydroxy-3,6-diphenyl-1,8-naphthyridin-2(1H)-one]	>1.0 × 10^2	2400 ± 300	900 ± 200	> 250	–
O=c1cc(O)c2c(-c3cccc(-c4ccccc4)c3)ccnc2n1O [5-3, 5-([1,1’-biphenyl]-3-yl)-1,4-dihydroxy-1,8-naphthyridin-2(1H)-one]	–	6000 ± 1000	15 ± 1	> 250	fold improvement in Mpr inhibition over C-6 regioisomer (compound 3 for 5-1) (mpox resolvase (Mpr)): 10 fold
COc1ccc(-c2cnc3c(c2)c(O)c(-c2ccccc2)c(=O)n3O)cc1F [4a-10, 6-(3-fluoro-4-methoxyphenyl)-1,4-dihydroxy-3-phenyl-1,8-naphthyridin-2(1H)-one]	>26	9700 ± 300	1600 ± 200	> 250	–
CCCCCCCCCCCCCCCCOCCCOP(=O)(O)CO[C@H](CO)Cn1ccc(N)nc1=O [Brincidofovir, brincidofovir, reference compound]	>3 × 10^4	7 ± 4	–	> 250	–
O=c1c(-c2ccccc2)c(O)c2cc(-c3cccc(-c4ccccc4)c3)cnc2n1O [compound 3, 6-([1,1’-biphenyl]-3-yl)-1,4-dihydroxy-3-phenyl-1,8-naphthyridin-2(1H)-one]	>1.9 × 10^2	1300 ± 300	340 ± 60	> 250	half-life (in vitro [1]): > 1440 min; human microsomal stability [2]: excellent human microsomal stability; solubility [3]: acceptable solubility; half-life (in vitro [4]): > 120 min; solubility (physchem): 130 ± 8 µM (≈ 52.8 µg/mL); IC50 [7]: 300 nM; Papp (in vitro [5]): 6 ± 2 ×10⁻⁶ cm/s
CCc1c(O)c2cc(-c3ccc(-c4ccccc4)cc3)cnc2n(O)c1=O [4b-2, 6-([1,1’-biphenyl]-4-yl)-3-ethyl-1,4-dihydroxy-1,8-naphthyridin-2(1H)-one]	>6.4 × 10^2	390 ± 10	360 ± 20	> 250	half-life (in vitro [1]): > 1440 min; half-life (in vitro [4]): > 120 min; solubility (physchem): 1.4 ± 0.1 µM (≈ 0.502 µg/mL); Papp (in vitro [5]): 3.8 ± 0.1 ×10⁻⁶ cm/s
O=c1c(-c2ccccc2)c(O)c2cc(-c3ccc(Oc4ccccc4)cc3)cnc2n1O [4a-3, 1,4-dihydroxy-6-(4-phenoxyphenyl)-3-phenyl-1,8-naphthyridin-2(1H)-one]	>1.9 × 10^2	1300 ± 400	120 ± 10	> 250	half-life (in vitro [1]): > 1440 min; half-life (in vitro [4]): 42.9 ± 0.7 min; solubility (physchem): 86 ± 5 µM (≈ 36.3 µg/mL); Papp (in vitro [5]): 8.6 ± 0.8 ×10⁻⁶ cm/s
CSc1ccc(-c2cnc3c(c2)c(O)c(-c2ccccc2)c(=O)n3O)cc1 [4a-8, 1,4-dihydroxy-6-(4-(methylthio)phenyl)-3-phenyl-1,8-naphthyridin-2(1H)-one]	–	–	370 ± 30	–	–
O=c1cc(O)c2cc(-c3ccsc3)cnc2n1O [4c-11, 1,4-dihydroxy-6-(thiophen-3-yl)-1,8-naphthyridin-2(1H)-one]	–	–	–	–	fluorescence quenching in the FRET assay (mpox resolvase (Mpr)): direct quenching of fluorophore
O=c1c(-c2ccccc2)c(O)c2cc(Br)cnc2n1O [4a-14, 6-bromo-1,4-dihydroxy-3-phenyl-1,8-naphthyridin-2(1H)-one]	–	–	7600 ± 100	–	–
O=c1c(-c2ccccc2)c(O)c2cc(-c3ccccc3F)cnc2n1O [4a-6, 6-(2-fluorophenyl)-1,4-dihydroxy-3-phenyl-1,8-naphthyridin-2(1H)-one]	–	–	1100 ± 100	–	–
O=c1cc(O)c2cc(-c3ccc(-c4ccccc4)cc3)cnc2n1O [4c-2, 6-([1,1’-biphenyl]-4-yl)-1,4-dihydroxy-1,8-naphthyridin-2(1H)-one]	–	–	–	–	fluorescence quenching in the FRET assay (mpox resolvase (Mpr)): direct quenching of fluorophore
CCc1c(O)c2cc(-c3ccc4cc(OC)ccc4c3)cnc2n(O)c1=O [4b-4, 3-ethyl-1,4-dihydroxy-6-(6-methoxynaphthalen-2-yl)-1,8-naphthyridin-2(1H)-one]	–	–	1600 ± 300	–	–
O=c1cc(O)c2cc(Br)cnc2n1O [4c-14, 6-bromo-1,4-dihydroxy-1,8-naphthyridin-2(1H)-one]	–	–	9000 ± 1000	–	–
O=c1c(-c2ccccc2)c(O)c2cc(-c3cnc4ccccc4c3)cnc2n1O [4a-29, 1,4-dihydroxy-3-phenyl-6-(quinolin-3-yl)-1,8-naphthyridin-2(1H)-one]	–	–	–	–	Mpr inhibition (mpox resolvase (Mpr)): did not inhibit Mpr
O=c1c(-c2ccccc2)c(O)c2cc(-c3ccc(O)cc3)cnc2n1O [4a-15, 1,4-dihydroxy-6-(4-hydroxyphenyl)-3-phenyl-1,8-naphthyridin-2(1H)-one]	–	–	1500 ± 100	–	–
COc1ccc(OC)c(-c2cnc3c(c2)c(O)c(-c2ccccc2)c(=O)n3O)c1 [4a-9, 6-(2,5-dimethoxyphenyl)-1,4-dihydroxy-3-phenyl-1,8-naphthyridin-2(1H)-one]	–	–	1400 ± 100	–	–
CSc1ccc(-c2cnc3c(c2)c(O)cc(=O)n3O)cc1 [4c-8, 1,4-dihydroxy-6-(4-(methylthio)phenyl)-1,8-naphthyridin-2(1H)-one]	–	–	–	–	fluorescence quenching in the FRET assay (mpox resolvase (Mpr)): direct quenching of fluorophore
O=c1c(-c2ccccc2)cc2cc(-c3cccc(-c4ccccc4)c3)cnc2n1O [6-1, 6-([1,1’-biphenyl]-3-yl)-1-hydroxy-3-phenyl-1,8-naphthyridin-2(1H)-one]	–	–	> 50000	–	–
COc1ccc(-c2cnc3c(c2)c(O)cc(=O)n3O)cc1F [4c-10, 6-(3-fluoro-4-methoxyphenyl)-1,4-dihydroxy-1,8-naphthyridin-2(1H)-one]	–	–	2500 ± 500	–	–
CCc1c(O)c2cc(-c3ccc(Oc4ccccc4)cc3)cnc2n(O)c1=O [4b-3, 3-ethyl-1,4-dihydroxy-6-(4-phenoxyphenyl)-1,8-naphthyridin-2(1H)-one]	>1.5 × 10^2	1600 ± 100	320 ± 60	> 250	half-life (in vitro [1]): > 1440 min; half-life (in vitro [4]): 35.2 ± 0.8 min; solubility (physchem): 47 ± 4 µM (≈ 17.6 µg/mL); Papp (in vitro [5]): 5.2 ± 0.6 ×10⁻⁶ cm/s
CCc1c(O)c2cc(-c3ccccc3)cnc2n(O)c1=O [4b-5, 3-ethyl-1,4-dihydroxy-6-phenyl-1,8-naphthyridin-2(1H)-one]	–	–	5300 ± 200	–	–
O=c1c(-c2ccccc2)c(O)c2cc(-c3ccc(C(F)(F)F)cc3C(F)(F)F)cnc2n1O [4a-23, 6-(2,4-bis(trifluoromethyl)phenyl)-1,4-dihydroxy-3-phenyl-1,8-naphthyridin-2(1H)-one]	–	–	2700 ± 400	–	–
CSc1cccc(-c2cnc3c(c2)c(O)c(-c2ccccc2)c(=O)n3O)c1 [4a-17, 1,4-dihydroxy-6-(3-(methylthio)phenyl)-3-phenyl-1,8-naphthyridin-2(1H)-one]	–	–	600 ± 100	–	–
